Source: patent publication US10947252B2, “Inhibitors of KEAP1-Nrf2 protein-protein interaction” (Janssen Pharmaceutica NV, priority 2018, dated 2021)

What was measured:
[1] = target: Kelch domain of human KEAP1 (321-624 aa) (Homo sapiens (Human), UniProt Q14145); experiment: KEAP1 KELCH ThermoFluor binding assay; conditions: KEAP Kelch […], 1,8-ANS, pH 7.0, average of results obtained, read-out: Tf Kd;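 also: Ligand-induced melting temperature shift of E. coli-expressed KEAP1 Kelch protein, Kd estimated from concentration-response curves of ΔTm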
[2] = tested on: Glo-Response ARE-luc2P HEK293 cell line; experiment: ARE luciferase reporter cell-based assay; conditions: Homo sapiens, HEK293, 24 h, average of results obtained;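 also: luciferase signal tracks Nrf2 activation of the ARE once compounds disrupt KEAP1-Nrf2 binding, read with One-Glo reagent, DMSO serving as low control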

Kelch domain of human KEAP1 (321-624 aa), sequence (Q14145 321-624): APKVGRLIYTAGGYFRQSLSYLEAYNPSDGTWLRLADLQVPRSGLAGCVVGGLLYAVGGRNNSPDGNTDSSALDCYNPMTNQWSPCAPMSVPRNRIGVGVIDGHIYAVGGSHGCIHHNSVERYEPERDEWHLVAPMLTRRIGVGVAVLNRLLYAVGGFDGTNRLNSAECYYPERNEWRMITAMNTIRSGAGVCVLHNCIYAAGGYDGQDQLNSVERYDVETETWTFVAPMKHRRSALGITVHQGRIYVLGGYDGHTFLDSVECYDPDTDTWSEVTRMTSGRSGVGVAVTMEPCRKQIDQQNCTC

Molecule `Cc1ccc(C(CC(=O)O)c2ccn3c(C(F)F)nnc3c2C)cc1CN1C[C@H]2COCCN2c2ncccc2S1(=O)=O` (stereo in doubt) [Example 460, 3-(3-(Difluoromethyl)-8-methyl-[1,2,4]triazolo[4,3-a]pyridin-7-yl)-3-(3-(((*S)-5,5-dioxido-7a,8,10,11-tetrahydro-[1,4]oxazino[3,4-d]pyrido[2,3-f][1,2,5]thiadiazepin-6(7H)-yl)methyl)-4-methylphenyl)propanoic Acid] has a Kd [1] of 0.00273 µM and an EC50 [2] of 0.119 µM.
`Cc1ccc(C(CC(=O)O)c2ccn3c(C(F)F)nnc3c2C)cc1CN1CC2(CC2)Oc2ncc(C(N)=O)cc2S1(=O)=O` (stereo not drawn) [Example 551, 3-(3-((8′-Carbamoyl-1′,1′-dioxidospiro[cyclopropane-1,4′-pyrido[2,3-b][1,4,5]oxathiazepin]-2′(3′H)-yl)methyl)-4-methylphenyl)-3-(3-(difluoromethyl)-8-methyl-[1,2,4]triazolo[4,3-a]pyridin-7-yl)propanoic Acid] gave a Kd [1] of 0.453 µM and an EC50 [2] of over 20 µM.
In the case of `CC[C@@H]1CN(Cc2nc([C@@H](CC(=O)O)c3ccc4c(nnn4C4CC4)c3C)ccc2C)S(=O)(=O)c2cccnc2O1` (single isomer, unassigned) [Example 175, (*S)-3-(1-Cyclopropyl-4-methyl-1H-benzo[d][1,2,3]triazol-5-yl)-3-(6-(((R)-4-ethyl-1,1-dioxido-3,4-dihydro-2H-pyrido[2,3-b][1,4,5]oxathiazepin-2-yl)methyl)-5-methylpyridin-2-yl)propanoic Acid], the Kd [1] is reported as under 0.001 µM and the EC50 [2] is reported as 0.0053 µM.
For `Cc1ccc([C@H](c2ccn3c(C(F)F)nnc3c2C)C(C)(C)C(=O)O)nc1CN1CC2(CCOCC2)Oc2nc(OCCN3CCCC3)c(C)cc2S1(=O)=O` (single isomer, unassigned) [Example 643, (*R)-3-(3-(Difluoromethyl)-8-methyl-[1,2,4]triazolo[4,3-a]pyridin-7-yl)-2,2-dimethyl-3-(5-methyl-6-((8′-methyl-1′,1′-dioxido-7′-(2-(pyrrolidin-1-yl)ethoxy)-2,3,5,6-tetrahydrospiro[pyran-4,4′-pyrido[2,3-b][1,4,5]oxathiazepin]-2′(3′H)-yl)methyl)pyridin-2-yl)propanoic Acid], the Kd [1] was 2.42 µM and the EC50 [2] was 9.78 µM.
Work on `CCn1nnc2c(C)c([C@H](c3cnc(C)c(CN4CC5(CCOCC5)Oc5ncccc5S4(=O)=O)c3)C(C)(C)C(=O)O)ccc21` (single isomer, unassigned) [Example 60, (*R)-3-(5-((1′,1′-Dioxido-2,3,5,6-tetrahydrospiro[pyran-4,4′-pyrido[2,3-b][1,4,5]oxathiazepin]-2′(3′H)-yl)methyl)-6-methylpyridin-3-yl)-3-(1-ethyl-4-methyl-1H-benzo[d][1,2,3]triazol-5-yl)-2,2-dimethylpropanoic Acid] yielded a Kd [1] of 41.1 µM and an EC50 [2] of 12.3 µM.
`Cc1ccc([C@@H](c2ccn3c(C(F)(F)F)nnc3c2C)C(C)(C)C(=O)O)cc1CN1CC2(CCOCC2)Oc2nc(O[C@@H](C)CN3CCCCC3)c(C)cc2S1(=O)=O` (single isomer, unassigned) [Example 602, (*S)-2,2-Dimethyl-3-(4-methyl-3-((8′-methyl-1′,1′-dioxido-7′-(((*S)-1-(piperidin-1-yl)propan-2-yl)oxy)-2,3,5,6-tetrahydrospiro[pyran-4,4′-pyrido[2,3-b][1,4,5]oxathiazepin]-2′,(3′H)-yl)methyl)phenyl)-3-(8-methyl-3-(trifluoromethyl)-[1,2,4]triazolo[4,3-a]pyridine-7-yl)propanoic Acid] was tested, and the Kd [1] was under 0.001 µM and the EC50 [2] was 0.00272 µM.
`Cc1ccc([C@H](CC(=O)O)c2ccn3c(C(F)(F)F)nnc3c2C)cc1CN1C[C@@H]2CCC(F)(F)CN2c2ncccc2S1(=O)=O` (single isomer, unassigned) [Example 453, (*S)-3-(3-(((*S)-10,10-Difluoro-5,5-dioxido-7,7a,8,9,10,11-hexahydro-6H-dipyrido[2,1-d:2′,3′-f][1,2,5]thiadiazepin-6-yl)methyl)-4-methylphenyl)-3-(8-methyl-3-(trifluoromethyl)-[1,2,4]triazolo[4,3-a]pyridin-7-yl)propanoic Acid] showed a Kd [1] of under 0.001 µM and an EC50 [2] of 0.162 µM.
Work on `Cc1c(C(CC(=O)O)c2ccc(Cl)c(CN3CC4CCCCN4c4ncccc4S3(=O)=O)c2)ccn2c(C(F)(F)F)nnc12` (stereo not drawn) [Example 83, 3-(4-Chloro-3-(((*S)-5,5-dioxido-7,7a,8,9,10,11-hexahydro-6H-dipyrido[2,1-d:2′,3′-f][1,2,5]thiadiazepin-6-yl)methyl)phenyl)-3-(8-methyl-3-(trifluoromethyl)-[1,2,4]triazolo[4,3-a]pyridine-7-yl)propanoic Acid] yielded a Kd [1] of under 0.001 µM and an EC50 [2] of 0.232 µM.
`Cc1ncc([C@H](c2ccc3c(nnn3C3CC3)c2C)C(C)(C)C(=O)O)cc1CN1CC2(CCOCC2)Oc2ncccc2S1(=O)=O` (single isomer, unassigned) [Example 44, (*S)-3-(1-Cyclopropyl-4-methyl-1H-benzo[d][1,2,3]triazol-5-yl)-3-(5-((1′,1′-dioxido-2,3,5,6-tetrahydrospiro[pyran-4,4′-pyrido[2,3-b][1,4,5]oxathiazepin]-2′(3′H)-yl)methyl)-6-methylpyridin-3-yl)-2,2-dimethylpropanoic Acid] gave a Kd [1] of under 0.001 µM and an EC50 [2] of 0.0543 µM.
`Cc1cnc2c(c1)S(=O)(=O)N(Cc1cc([C@H](c3ccn4c(C(F)(F)F)nnc4c3C)C(C)(C)C(=O)O)ccc1C)CC1(CC1)O2` (single isomer, unassigned) [Example 315, (*R)-2,2-Dimethyl-3-(4-methyl-3-((8′-methyl-1′,1′-dioxidospiro[cyclopropane-1,4′-pyrido[2,3-b][1,4,5]oxathiazepin]-2′(3′H)-yl)methyl)phenyl)-3-(8-methyl-3-(trifluoromethyl)-[1,2,4]triazolo[4,3-a]pyridin-7-yl)propanoic Acid] gave a Kd [1] of 0.287 µM and an EC50 [2] of 0.148 µM.
With `Cc1ccc([C@H](CC(=O)O)c2ccn3c(C(F)(F)F)nnc3c2C)nc1CN1CC2(CC2)Oc2ncccc2S1(=O)=O` (single isomer, unassigned) [Example 483, (*R)-3-(6-((1′,1′-Dioxidospiro[cyclopropane-1,4′-pyrido[2,3-b][1,4,5]oxathiazepin]-2′(3′H)-yl)methyl)-5-methylpyridin-2-yl)-3-(8-methyl-3-(trifluoromethyl)-[1,2,4]triazolo[4,3-a]pyridin-7-yl)propanoic Acid] the Kd [1] was under 0.001 µM and the EC50 [2] was 3.45 µM.
With `Cc1ccc(C(CC(=O)O)c2ccn3c(C(F)F)nnc3c2C)cc1CN1C[C@@H]2CCCCN2c2ncccc2S1(=O)=O` (stereo in doubt) [Example 446, 3-(3-(Difluoromethyl)-8-methyl-[1,2,4]triazolo[4,3-a]pyridin-7-yl)-3-(3-(((*S)-5,5-dioxido-7,7a,8,9,10,11-hexahydro-6H-dipyrido[2,1-d:2′,3′-f][1,2,5]thiadiazepin-6-yl)methyl)-4-methylphenyl)propanoic Acid] the Kd [1] was under 0.001 µM and the EC50 [2] was 0.0238 µM.
Molecule `Cc1ccc([C@H](CC(=O)O)c2ccc3c(nnn3CC3CC3)c2C)cc1CN1CC2(COC2)Oc2ncccc2S1(=O)=O` (single isomer, unassigned) [Example 69, (*S)-3-(1-(Cyclopropylmethyl)-4-methyl-1H-benzo[d][1,2,3]triazol-5-yl)-3-(3-((1′,1′-dioxidospiro[oxetane-3,4′-pyrido[2,3-b][1,4,5]oxathiazepin-2′(3′H)-yl)methyl)-4-methylphenyl)propanoic Acid] has a Kd [1] of 0.00016 µM and an EC50 [2] of 0.0285 µM.
`Cc1cc2cc(C(CC(=O)O)c3ccc(C)c(CN4C[C@@H]5CCCN5c5ncccc5S4(=O)=O)c3)n(C)c2nn1` (mixture of isomers) [Example 437, 3-(3,7-Dimethyl-7H-pyrrolo[2,3-c]pyridazin-6-yl)-3-(3-(((S)-5,5-dioxido-7a, 8,9,10-tetrahydropyrido[2,3-f]pyrrolo[2,1-d][1,2,5]thiadiazepin-6(7H)-yl)methyl)-4-methylphenyl)propanoic Acid] showed a Kd [1] of 0.00184 µM and an EC50 [2] of 4.38 µM.
`CC[C@@H]1CN(Cc2cc([C@@H](CC(=O)O)c3ccn4c(C(F)F)nnc4c3C)ccc2C)S(=O)(=O)c2cccnc2O1` (single isomer, unassigned) [Example 465, (*R)-3-(3-(Difluoromethyl)-8-methyl-[1,2,4]triazolo[4,3-a]pyridin-7-yl)-3-(3-(((R)-4-ethyl-1,1-dioxido-3,4-dihydro-2H-pyrido[2,3-b][1,4,5]oxathiazepin-2-yl)methyl)-4-methylphenyl)propanoic Acid] was tested, and the Kd [1] was under 0.001 µM and the EC50 [2] was 0.154 µM.
With `Cc1cnc(C(c2ccn3c(C(F)(F)F)nnc3c2C)C(C)(C)C(=O)O)cc1CN1CC2(CCOCC2)Oc2ncccc2S1(=O)=O` (racemic) [Example 55, (R/S)-3-(4-((1′,1′-Dioxido-2,3,5,6-tetrahydrospiro[pyran-4,4′-pyrido[2,3-b][1,4,5]oxathiazepin]-2′(3′H)-yl)methyl)-5-methylpyridin-2-yl)-2,2-dimethyl-3-(8-methyl-3-(trifluoromethyl)-[1,2,4]triazolo[4,3-a]pyridin-7-yl)propanoic Acid] the Kd [1] was under 0.001 µM and the EC50 [2] was 0.124 µM.
In the case of `Cc1c(C(CC(=O)O)c2ccc(Cl)c(CN3CC4CCCCN4c4ncc(F)cc4S3(=O)=O)c2)ccn2c(C(F)(F)F)nnc12` (stereo not drawn) [Example 92, 3-(4-Chloro-3-(((*S)-3-fluoro-5,5-dioxido-7,7a,8,9,10,11-hexahydro-6H-dipyrido[2,1-d:2′,3′-f][1,2,5]thiadiazepin-6-yl)methyl)phenyl)-3-(8-methyl-3-(trifluoromethyl)-[1,2,4]triazolo[4,3-a]pyridine-7-yl)propanoic Acid], the Kd [1] is reported as under 0.001 µM and the EC50 [2] is reported as 0.0286 µM.
`Cc1ccc([C@H](c2ccn3c(C(F)(F)F)nnc3c2C)C(C)(C)C(=O)O)cc1CN1CC2(CCOCC2)Oc2nc(OCCC3CCNCC3)c(C)cc2S1(=O)=O` (single isomer, unassigned) [Example 369, (*R)-2,2-Dimethyl-3-(4-methyl-3-(8′-methyl-1′,1′-dioxido-7′-(2-(piperidin-4-yl)ethoxy)-2,3,5,6-tetrahydrospiro[pyran-4,4′-pyrido[2,3-b][1,4,5]oxathiazepin]-2′(3′H)-yl)methyl)-4-methylphenyl)-2,2-dimethyl-3-(8-methyl-3-(trifluoromethyl)-[1,2,4]triazolo[4,3-a][pyridine-7-yl)propanoic Acid] gave a Kd [1] of under 0.001 µM and an EC50 [2] of 0.176 µM.
